Data set [1] is described as follows: Solubility in PG/EtOH (96%) at 30 mg/mL after 24 hrs by UV-spectrometric method. It is filed as physicochemical. Particulars: PG/EtOH (96%).
The nature of data set [2]: Solubility in pH 7.4 phosphate buffer solution at 100 uM after 24 hrs by HPLC method. It is filed as physicochemical. The note with it: buffer, pH 7.4, 24 h, 100 µM.
In data set [3] the target is T1, Polyamine deacetylase HDAC10 (Homo sapiens, UniProt Q969S8).
T1 sequence (Q969S8 whole entry): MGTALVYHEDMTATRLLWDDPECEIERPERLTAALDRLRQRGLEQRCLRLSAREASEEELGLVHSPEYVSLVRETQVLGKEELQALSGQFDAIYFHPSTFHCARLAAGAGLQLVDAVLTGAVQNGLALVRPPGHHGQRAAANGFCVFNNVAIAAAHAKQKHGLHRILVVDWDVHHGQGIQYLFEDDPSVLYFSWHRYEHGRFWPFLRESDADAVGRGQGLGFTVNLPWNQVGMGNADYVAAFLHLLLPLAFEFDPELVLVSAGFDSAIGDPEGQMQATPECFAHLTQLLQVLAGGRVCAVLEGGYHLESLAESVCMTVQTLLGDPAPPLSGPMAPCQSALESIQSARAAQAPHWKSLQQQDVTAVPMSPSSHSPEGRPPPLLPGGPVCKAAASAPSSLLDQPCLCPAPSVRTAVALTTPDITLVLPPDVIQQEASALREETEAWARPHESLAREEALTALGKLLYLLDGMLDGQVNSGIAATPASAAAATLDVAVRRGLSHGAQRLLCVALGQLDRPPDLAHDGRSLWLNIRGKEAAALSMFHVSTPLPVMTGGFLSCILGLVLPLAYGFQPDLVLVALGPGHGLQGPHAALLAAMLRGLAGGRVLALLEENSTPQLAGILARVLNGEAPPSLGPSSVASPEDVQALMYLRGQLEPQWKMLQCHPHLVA
In words: Inhibition of human recombinant HDAC10 using fluorogenic HDAC substrate after 45 mins by fluorimetrc method.

The test system of the next data set is HuT78. The data set is described as follows: Pro-apoptotic activity in human HUT78 cells after 18 hrs by caspase-Glo 3/7 assay. It is filed as functional, cell-based. The note with it: HuT78, 18 h.
For data set [4], the target named is T2, NAD-dependent protein deacetylase sirtuin-3, mitochondrial (Homo sapiens, UniProt Q9NTG7).
T2 sequence (Q9NTG7 whole entry): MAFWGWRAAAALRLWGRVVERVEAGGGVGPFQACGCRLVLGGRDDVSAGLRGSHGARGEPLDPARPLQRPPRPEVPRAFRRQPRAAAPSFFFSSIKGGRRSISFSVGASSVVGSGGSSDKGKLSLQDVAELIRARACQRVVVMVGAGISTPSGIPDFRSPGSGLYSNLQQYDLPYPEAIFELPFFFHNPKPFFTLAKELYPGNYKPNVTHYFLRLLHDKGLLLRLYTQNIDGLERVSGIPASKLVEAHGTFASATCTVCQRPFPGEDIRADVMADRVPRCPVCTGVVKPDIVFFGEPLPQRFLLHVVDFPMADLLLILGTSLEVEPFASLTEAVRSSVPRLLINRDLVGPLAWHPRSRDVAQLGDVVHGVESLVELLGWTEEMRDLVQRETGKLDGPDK
In words: Inhibition of human recombinant SIRT3 using fluoro-lysine sirtuin 2 deacetylase substrate after 45 mins by fluorimetrc method.

The next data set concerns the target Histone deacetylase 5 (Homo sapiens, UniProt Q9UQL6). The data set is described as follows: Inhibition of human recombinant HDAC5 using fluorogenic HDAC substrate class 2a after 30 mins by fluorimetrc method.
For the next data set, the target named is Histone deacetylase 9 (Homo sapiens, UniProt Q9UKV0). In words: Inhibition of human recombinant HDAC9 using fluorogenic HDAC substrate class 2a after 30 mins by fluorimetrc method.
Data set [5] deals with T3, NAD-dependent protein deacetylase sirtuin-2 (Homo sapiens, UniProt Q8IXJ6).
T3 sequence (Q8IXJ6 whole entry): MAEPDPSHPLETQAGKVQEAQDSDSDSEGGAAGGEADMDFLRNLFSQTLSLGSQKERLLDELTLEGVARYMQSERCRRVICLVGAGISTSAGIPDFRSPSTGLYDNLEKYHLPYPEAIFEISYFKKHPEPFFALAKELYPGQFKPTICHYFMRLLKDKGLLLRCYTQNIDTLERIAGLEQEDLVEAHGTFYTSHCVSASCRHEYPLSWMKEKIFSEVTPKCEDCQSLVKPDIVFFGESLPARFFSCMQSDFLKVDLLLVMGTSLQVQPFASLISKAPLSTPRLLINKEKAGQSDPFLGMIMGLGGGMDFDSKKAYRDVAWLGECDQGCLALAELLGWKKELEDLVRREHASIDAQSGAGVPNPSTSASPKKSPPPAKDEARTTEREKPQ
In words: Inhibition of human recombinant SIRT2 using fluoro-lysine sirtuin 2 deacetylase substrate after 60 mins by fluorimetrc method.

The target in data set [6] is T4, NAD-dependent protein deacetylase sirtuin-7 (Homo sapiens, UniProt Q9NRC8).
T4 sequence (Q9NRC8 whole entry): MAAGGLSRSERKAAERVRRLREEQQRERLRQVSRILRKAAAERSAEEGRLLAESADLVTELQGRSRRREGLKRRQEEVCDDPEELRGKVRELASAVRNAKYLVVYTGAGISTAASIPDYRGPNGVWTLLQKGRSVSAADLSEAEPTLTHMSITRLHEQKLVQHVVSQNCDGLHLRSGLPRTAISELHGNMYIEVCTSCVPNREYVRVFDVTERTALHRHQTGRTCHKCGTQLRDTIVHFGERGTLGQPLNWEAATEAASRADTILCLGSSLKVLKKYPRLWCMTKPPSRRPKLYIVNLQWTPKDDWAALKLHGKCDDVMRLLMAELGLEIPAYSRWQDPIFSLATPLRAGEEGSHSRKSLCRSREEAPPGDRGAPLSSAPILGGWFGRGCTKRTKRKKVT
The data set is described as follows: Inhibition of SIRT7 (unknown origin).

Data set [7] concerns the target T5, NAD-dependent protein deacetylase sirtuin-1 (Homo sapiens, UniProt Q96EB6).
T5 sequence (Q96EB6 whole entry): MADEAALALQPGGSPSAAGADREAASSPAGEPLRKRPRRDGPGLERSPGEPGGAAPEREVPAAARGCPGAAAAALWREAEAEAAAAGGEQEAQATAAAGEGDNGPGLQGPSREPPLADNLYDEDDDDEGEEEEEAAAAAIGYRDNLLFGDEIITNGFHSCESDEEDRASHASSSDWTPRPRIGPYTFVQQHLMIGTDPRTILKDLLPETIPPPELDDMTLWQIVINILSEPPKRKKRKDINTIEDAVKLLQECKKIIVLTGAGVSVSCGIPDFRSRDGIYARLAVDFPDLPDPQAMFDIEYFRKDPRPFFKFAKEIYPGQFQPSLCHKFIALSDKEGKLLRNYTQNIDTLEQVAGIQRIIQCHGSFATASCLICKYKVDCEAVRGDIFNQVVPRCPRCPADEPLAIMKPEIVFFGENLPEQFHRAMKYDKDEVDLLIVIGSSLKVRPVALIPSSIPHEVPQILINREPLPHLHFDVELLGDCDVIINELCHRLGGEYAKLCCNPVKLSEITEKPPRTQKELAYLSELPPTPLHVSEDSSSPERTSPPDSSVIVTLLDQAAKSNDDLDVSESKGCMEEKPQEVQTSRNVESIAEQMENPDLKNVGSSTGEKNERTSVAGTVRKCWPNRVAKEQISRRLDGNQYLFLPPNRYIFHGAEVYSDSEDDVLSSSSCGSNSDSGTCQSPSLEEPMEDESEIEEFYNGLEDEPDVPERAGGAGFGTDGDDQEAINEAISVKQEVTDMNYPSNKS
The data set is described as follows: Inhibition of human recombinant SIRT1 using fluorogenic HDAC substrate after 20 mins by fluorimetrc method.

Data set [8] is described as follows: Clearance in human hepatocytes assessed per million cells at 1 uM after 5 to 90 mins by LC-MS/MS analysis. It is filed as ADME, cell-based, Hepatocyte. Particulars: read-out: CLH.

≈ marks a conversion by molar mass, not a printed value.

Chain of Histone deacetylase 5 (Q9UQL6 whole entry): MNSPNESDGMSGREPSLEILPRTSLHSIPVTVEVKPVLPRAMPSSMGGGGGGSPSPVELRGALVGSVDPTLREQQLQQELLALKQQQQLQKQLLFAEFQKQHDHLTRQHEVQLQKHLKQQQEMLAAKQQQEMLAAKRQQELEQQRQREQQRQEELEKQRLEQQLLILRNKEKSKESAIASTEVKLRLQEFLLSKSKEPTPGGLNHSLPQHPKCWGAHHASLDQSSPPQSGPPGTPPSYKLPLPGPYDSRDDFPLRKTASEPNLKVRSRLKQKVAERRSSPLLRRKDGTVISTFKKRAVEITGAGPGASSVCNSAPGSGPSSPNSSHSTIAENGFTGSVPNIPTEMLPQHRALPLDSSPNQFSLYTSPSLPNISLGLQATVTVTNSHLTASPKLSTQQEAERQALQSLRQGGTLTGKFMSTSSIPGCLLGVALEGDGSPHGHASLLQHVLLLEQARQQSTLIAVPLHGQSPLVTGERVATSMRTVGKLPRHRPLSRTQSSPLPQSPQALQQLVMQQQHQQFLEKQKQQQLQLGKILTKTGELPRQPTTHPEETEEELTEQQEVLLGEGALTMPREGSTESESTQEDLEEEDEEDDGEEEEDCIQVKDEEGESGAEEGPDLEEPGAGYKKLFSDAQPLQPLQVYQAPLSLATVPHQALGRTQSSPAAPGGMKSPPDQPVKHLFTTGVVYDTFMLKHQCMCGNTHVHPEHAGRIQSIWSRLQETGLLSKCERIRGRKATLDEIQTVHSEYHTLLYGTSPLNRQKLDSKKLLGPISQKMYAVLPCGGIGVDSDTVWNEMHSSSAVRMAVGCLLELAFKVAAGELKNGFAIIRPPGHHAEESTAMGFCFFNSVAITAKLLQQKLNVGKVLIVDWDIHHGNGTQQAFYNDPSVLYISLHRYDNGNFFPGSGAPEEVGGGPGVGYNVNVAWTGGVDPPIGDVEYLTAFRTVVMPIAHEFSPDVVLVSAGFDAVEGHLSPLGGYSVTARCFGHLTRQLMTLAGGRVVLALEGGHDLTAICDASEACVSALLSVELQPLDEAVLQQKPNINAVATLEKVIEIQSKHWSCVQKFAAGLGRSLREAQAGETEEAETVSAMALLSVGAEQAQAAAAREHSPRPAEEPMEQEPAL
Chain of Histone deacetylase 9 (Q9UKV0 whole entry): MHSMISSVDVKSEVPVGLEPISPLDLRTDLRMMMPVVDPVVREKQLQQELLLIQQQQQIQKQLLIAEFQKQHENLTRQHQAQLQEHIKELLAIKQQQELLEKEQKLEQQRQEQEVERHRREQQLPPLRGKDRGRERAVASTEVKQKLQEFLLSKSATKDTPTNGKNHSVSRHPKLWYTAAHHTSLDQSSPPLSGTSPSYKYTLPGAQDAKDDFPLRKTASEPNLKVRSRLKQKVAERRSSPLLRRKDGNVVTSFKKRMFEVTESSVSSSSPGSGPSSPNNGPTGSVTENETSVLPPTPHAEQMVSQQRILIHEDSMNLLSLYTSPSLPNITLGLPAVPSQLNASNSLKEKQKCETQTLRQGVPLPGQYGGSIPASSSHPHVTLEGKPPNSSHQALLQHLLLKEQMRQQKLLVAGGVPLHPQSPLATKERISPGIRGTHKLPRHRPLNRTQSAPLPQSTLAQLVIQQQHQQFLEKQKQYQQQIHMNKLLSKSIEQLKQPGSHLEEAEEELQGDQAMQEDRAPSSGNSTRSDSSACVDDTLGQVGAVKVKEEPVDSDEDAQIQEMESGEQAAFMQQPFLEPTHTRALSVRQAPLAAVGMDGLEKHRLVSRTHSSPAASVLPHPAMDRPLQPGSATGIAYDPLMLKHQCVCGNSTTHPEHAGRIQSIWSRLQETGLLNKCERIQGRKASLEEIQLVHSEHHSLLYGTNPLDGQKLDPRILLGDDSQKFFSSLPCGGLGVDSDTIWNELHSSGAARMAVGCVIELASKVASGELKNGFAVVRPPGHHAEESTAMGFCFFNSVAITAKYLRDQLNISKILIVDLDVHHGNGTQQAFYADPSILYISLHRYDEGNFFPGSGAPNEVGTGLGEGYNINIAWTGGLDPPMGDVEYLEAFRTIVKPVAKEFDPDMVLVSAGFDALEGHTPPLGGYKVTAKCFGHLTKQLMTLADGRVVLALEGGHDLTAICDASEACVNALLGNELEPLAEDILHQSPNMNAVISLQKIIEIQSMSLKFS

For the molecule `Cn1cc(CNCC2CCN(c3ncc(C(=O)NO)cn3)CC2)c2ccccc21` [QUISINOSTAT], in [1], the solubility (commonly the dissolved amount per volume that the medium holds) at 24 h is 9.1 mM (≈ 3590 µg/mL). Besides, the solubility in data set [2] was > 0.097 mM. Also, the inhibition constant (Ki) (usually a measure of affinity in units of concentration, obtained from inhibition or displacement) in [3] is 4.4 nM; in data set [4], > 10000 nM; at Histone deacetylase 5 it was 4.3 nM; at Histone deacetylase 9, 5.3 nM; in data set [5], > 10000 nM; in data set [6] it was > 10000 nM. Moreover, the Ki in data set [7] is > 10000 nM. It took 6.5 nM to reach a half-maximal effect with HuT78 (EC50). The hepatocyte CLint at 1 µM in data set [8] is 9.8 µL/min/1e6 cells.

The values are drawn from ChEMBL document CHEMBL4229543, “Squaramides as novel class I and IIB histone deacetylase inhibitors for topical treatment of cutaneous t-cell lymphoma” (Bioorg Med Chem Lett, 2018).
